Reference: patent US8309551B2, “Pyrazolopyridine, indazole, imidazopyridine, imidazopyrimidine, pyrazolopyrazine and pyrazolopyridine derivatives as stimulators of guanylate cyclase for cardiovascular disorders” (Bayer Intellectual Property GmbH, priority 2006, dated 2012)
Read-outs that look alike come from different tables or passages of the source.

Test system: aorta rings
Test: Vasorelaxant effect in vitro (phenylephrine-contracted rabbit aorta rings)
Details: Oryctolagus cuniculus, read-out: IC50 (concentration necessary to reduce the level of contraction by 50%)
Description: B-1. Vasorelaxant Effect in Vitro
Rabbits are stunned by a blow to the back of the neck and are exsanguinated. The aorta is removed, freed of adherent tissue, divided into rings 1.5 mm wide and placed singly in 5 ml organ baths with carbogen-gassed Krebs-Henseleit solution of the following composition (in each case mM): NaCl: 119; KCl: 4.8; CaCl2×2 H2O: 1; MgSO4×7 H2O: 1.4; KH2PO4: 1.2; NaHCO3: 25; glucose: 10, under an initial tension at 37° C. The force of contraction is detected with Statham UC2 cells, amplified and digitized via A/D converters (DAS-1802 HC, Keithley Instruments Munich), and recorded in parallel on chart recorders. A contraction is induced by adding phenylephrine to the bath cumulatively in increasing concentration. After several control cycles, the substance to be investigated is added in each further run in increasing dosage each time, and the level of contraction is compared with the level of contraction achieved in the last preceding run. The concentration necessary to reduce the level of contraction by 50% (IC50) is calculated therefrom. The standard application volume is 5 μl, and the DMSO content in the bath solution corresponds to 0.1%.

[1] = rabbit aorta rings, contraction induced by phenylephrine, 37° C., 0.1% DMSO

**Q.** With `Nc1cc(N)nc(-c2nc(Cc3ccccc3F)c3ncccn23)n1` [Example 7, 2-[8-(2-Fluorobenzyl)imidazo[1,5-a]pyrimidin-6-yl]pyrimidine-4,6-diamine] as the compound, how does the IC50 read?
**A.** 1050 nM

**Q.** With `Nc1nc(N)nc(-c2nc(Cc3ccccc3F)c3ncccn23)n1` [Example 4, 6-[8-(2-Fluorobenzyl)imidazo[1,5-a]pyrimidin-6-yl]-1,3,5-triazine-2,4-diamine] as the compound, how does the IC50 read?
**A.** 215 nM

**Q.** Which IC50 [1] does the source give for `Nc1nc(N)nc(-n2nc(Cc3ccccc3F)c3ccccc32)n1` [Example 2, 6-[3-(2-Fluorobenzyl)-1H-indazol-1-yl]-1,3,5-triazine-2,4-diamine] here?
**A.** 300 nM

**Q.** `Nc1nc(N)nc(-n2nc(Cc3ccccc3F)c3ncccc32)n1` [Example 1, 6-[3-(2-Fluorobenzyl)-1H-pyrazolo[4,3-b]pyridin-1-yl]-1,3,5-triazine-2,4-diamine] was tested. Which IC50 [1] did it give?
**A.** 240 nM

**Q.** Which IC50 [1] does the source give for `Nc1nc(N)nc(-c2nc(Cc3ccccc3F)n3ccccc23)n1` [Example 3, 6-[3-(2-Fluorobenzyl)imidazo[1,5-a]pyridin-1-yl]-1,3,5-triazine-2,4-diamine] here?
**A.** 2900 nM
